Results on six compounds are retold here after patent publication US8829010B2, “Pyrazolo[3,4-d]pyrimidine compounds and their use as PDE2 inhibitors and/or CYP3A4 inhibitors” (Pfizer Inc., priority 2011, dated 2014).

For data set [1], the target named is T1, human full-length PDE2A3 enzyme (Homo sapiens (Human), UniProt O00408). The data set is described as follows: Recombinant human PDE2A3 inhibition by [3H]-cGMP scintillation proximity assay (SPA). In kind it is biochemical.
The target of data set [2] is T1, human full-length PDE2A3 enzyme. The following applies: literature values; IC50 values obtained were within 3× of these; read-out: PDE2 IC50, literature values of control compounds; cited from earlier work.
For the next data set, the target named is CYP3A5 (Homo sapiens (Human), UniProt P20815). The data set is described as follows: biochemical.
Chain of CYP3A5 (P20815 whole entry): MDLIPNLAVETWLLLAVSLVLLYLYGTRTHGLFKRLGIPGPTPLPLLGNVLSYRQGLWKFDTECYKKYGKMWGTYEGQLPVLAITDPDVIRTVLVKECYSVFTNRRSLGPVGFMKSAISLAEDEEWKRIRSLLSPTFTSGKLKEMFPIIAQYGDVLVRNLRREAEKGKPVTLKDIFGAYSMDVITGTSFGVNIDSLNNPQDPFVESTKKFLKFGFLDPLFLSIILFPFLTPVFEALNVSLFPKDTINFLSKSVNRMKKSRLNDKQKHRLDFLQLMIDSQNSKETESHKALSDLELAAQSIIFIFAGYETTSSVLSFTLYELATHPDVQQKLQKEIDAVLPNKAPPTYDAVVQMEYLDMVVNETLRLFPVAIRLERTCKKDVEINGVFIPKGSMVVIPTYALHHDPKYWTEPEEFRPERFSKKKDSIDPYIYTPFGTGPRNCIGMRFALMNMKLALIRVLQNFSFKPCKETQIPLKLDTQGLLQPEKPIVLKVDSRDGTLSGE
For the next data set, the target named is CYP3A4 (Homo sapiens (Human), UniProt P08684). The data set is described as follows: biochemical.
Chain of CYP3A4 (P08684 whole entry): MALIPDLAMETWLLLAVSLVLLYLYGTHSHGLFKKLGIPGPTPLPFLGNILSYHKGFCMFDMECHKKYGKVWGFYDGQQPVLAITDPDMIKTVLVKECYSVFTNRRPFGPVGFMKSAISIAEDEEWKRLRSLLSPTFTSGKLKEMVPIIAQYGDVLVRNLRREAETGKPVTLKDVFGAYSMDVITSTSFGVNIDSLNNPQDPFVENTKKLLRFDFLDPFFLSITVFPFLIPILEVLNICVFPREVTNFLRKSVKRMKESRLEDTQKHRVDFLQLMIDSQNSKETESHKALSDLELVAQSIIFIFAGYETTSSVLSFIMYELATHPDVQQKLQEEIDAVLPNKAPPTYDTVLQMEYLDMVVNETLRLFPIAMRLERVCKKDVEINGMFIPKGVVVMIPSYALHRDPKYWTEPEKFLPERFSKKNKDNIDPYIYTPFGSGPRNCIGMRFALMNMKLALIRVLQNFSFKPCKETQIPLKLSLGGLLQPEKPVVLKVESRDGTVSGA
The target in a further data set is CYP3A4 versus CYP3A5 (Homo sapiens (Human), UniProt P08684). The data set is described as follows: in vitro.
Chain of CYP3A4 versus CYP3A5 (P08684 whole entry): as above
The mark [3] stands for this setting: Geometric mean of 2-5 determinations unless otherwise indicated (a: single determination; b: 7-8 determinations).

Where “and” joins values, the source holds several entries; their conditions need not be identical. Equal entries are not always repeated. Where two headings read alike, the source gives them in different places.

T1 sequence (O00408 whole entry): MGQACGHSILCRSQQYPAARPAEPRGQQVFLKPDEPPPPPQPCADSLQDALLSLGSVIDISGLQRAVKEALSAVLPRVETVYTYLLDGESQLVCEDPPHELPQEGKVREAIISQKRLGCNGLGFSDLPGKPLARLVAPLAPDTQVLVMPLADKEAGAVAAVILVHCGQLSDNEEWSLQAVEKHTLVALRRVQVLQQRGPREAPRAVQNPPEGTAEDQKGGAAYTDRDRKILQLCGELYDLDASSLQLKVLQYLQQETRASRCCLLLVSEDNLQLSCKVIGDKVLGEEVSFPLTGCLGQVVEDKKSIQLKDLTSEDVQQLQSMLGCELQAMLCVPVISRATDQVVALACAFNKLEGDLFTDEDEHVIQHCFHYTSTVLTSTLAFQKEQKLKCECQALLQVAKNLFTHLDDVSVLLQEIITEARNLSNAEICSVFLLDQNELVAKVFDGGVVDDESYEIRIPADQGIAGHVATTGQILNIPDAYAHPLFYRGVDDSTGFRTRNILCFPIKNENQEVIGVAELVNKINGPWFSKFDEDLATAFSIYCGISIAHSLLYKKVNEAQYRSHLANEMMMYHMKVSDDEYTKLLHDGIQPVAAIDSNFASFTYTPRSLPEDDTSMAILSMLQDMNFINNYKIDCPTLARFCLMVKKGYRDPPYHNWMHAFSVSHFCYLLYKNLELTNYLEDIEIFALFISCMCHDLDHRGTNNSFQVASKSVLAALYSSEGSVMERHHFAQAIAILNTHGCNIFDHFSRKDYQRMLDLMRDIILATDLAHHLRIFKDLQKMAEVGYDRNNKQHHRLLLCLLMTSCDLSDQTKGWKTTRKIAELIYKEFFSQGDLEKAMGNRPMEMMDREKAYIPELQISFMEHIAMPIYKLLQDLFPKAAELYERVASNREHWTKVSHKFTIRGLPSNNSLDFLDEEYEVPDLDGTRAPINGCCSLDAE

As to “3-[5-(4-chloro-3- fluorophenyl)-1- methyl-1H-pyrazol- 4-yl]-1-methyl-4-[3- (1-methyl-1H- pyrazol-3- yl)azetidin-1-yl]-1H- pyrazolo[3,4- d]pyrimidine [Example 19]”, in data set [1], the half-maximal inhibitory concentration (IC50) is below 2.87 nM.
For the compound `CCCCCC[C@@H]([C@@H](C)O)n1cnc2c(N)ncnc21` (racemic) [EHNA, erythro-9-(2-hydroxy-3-nonyl) adenine], the IC50 in data set [2] was 1700 nM.
Regarding `Cc1ccc(-c2c(-c3nn(C)c4ncnc(N5CC[C@H](N6CCCCC6)C5)c34)cnn2C)cc1` [Example 2, 1-Methyl-3-[1-methyl-5-(4-methylphenyl)-1H-pyrazol-4-yl]-4-[(3S)-3-(piperidin-1-yl)pyrrolidin-1-yl]-1H-pyrazolo[3,4-d]pyrimidine], the IC50 against CYP3A5 was 9.69 µM; against CYP3A4, 65.3 nM and 122 nM.
In the case of `Cn1ncc(-c2nn(C)c3ncnc(N4CC(F)C4)c23)c1-c1ccc(C2CC2)cc1` [Example 3, 3-[5-(4-Cyclopropylphenyl)-1-methyl-1H-pyrazol-4-yl]-4-(3-fluoroazetidin-1-yl)-1-methyl-1H-pyrazolo[3,4-d]pyrimidine], the IC50 in data set [1] (setting [3]) was below 1.31 nM.
The same measure, in the same setting: the value for `COC(=O)NC1CN(c2ncnc3c2c(-c2cnn(C)c2-c2ccc(C4CC4)cc2)nn3C)C1` [Example 23, methyl (1-{3-[5-(4-cyclopropylphenyl)-1-methyl-1H-pyrazol-4-yl]-1-methyl-1H-pyrazolo[3,4-d]pyrimidin-4-yl}azetidin-3-yl)carbamate] was below 2.11 nM.
As to `CCc1ccc(-c2c(-c3nn(C)c4ncnc(N5CC[C@H](N6CCCCC6)C5)c34)cnn2C)cc1` [Example 56, 3-[5-(4-ethylphenyl)-1-methyl-1H-pyrazol-4-yl]-1-methyl-4-[(3S)-3-(piperidin-1-yl)pyrrolidin-1-yl]-1H-pyrazolo[3,4-d]pyrimidine], the IC50 was 3.47 µM and 6.96 µM against CYP3A5; 39.7 nM and 71.1 nM against CYP3A4. The inhibition at 0.316 µM in data set [1] (at 316 nM, single determination) came to 41%. Further, the selectivity ratio at CYP3A4 versus CYP3A5 (probe midazolam) was determined as 87; at CYP3A4 versus CYP3A5 (probe testosterone), 98.
